According to patent publication US10597388B2, “Pyridazinone herbicides” (FMC CORPORATION, priority 2014, dated 2020):

What was measured:
Test in all cases: Test C greenhouse herbicide test, pre- and postemergence
Assay type in all cases: in vivo
[1] = test system: lambsquarters (Chenopodium album)
Procedure, shortened: (§1)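 Percent-control ratings (0 none, 100 complete) came from visual comparison with controls held alongside in the greenhouse for 13–15 d. Treatments covered soil application at sowing and foliar application to young plants 2–18 cm tall.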

[2] = test system: barnyardgrass (Echinochloa crus-galli)
Procedure, shortened: as §1

[3] = test system: galium (catchweed bedstraw, Galium aparine)
Procedure, shortened: as §1

[4] = test system: crabgrass, large (large crabgrass, Digitaria sanguinalis)
Procedure, shortened: as §1

[5] = test system: foxtail, giant (giant foxtail, Setaria faberii)
Procedure, shortened: as §1

[6] = test system: soybean (Glycine max)
Procedure, shortened: as §1

[7] = test system: oilseed rape (Brassica napus)
Procedure, shortened: as §1

[8] = test system: ryegrass, Italian (Italian ryegrass, Lolium multiflorum)
Procedure, shortened: as §1

[9] = test system: pigweed (Amaranthus retroflexus)
Procedure, shortened: as §1

[10] = test system: corn (Zea mays)
Procedure, shortened: as §1

[11] = test system: ragweed (common ragweed, Ambrosia elatior)
Procedure, shortened: as §1

[12] = test system: blackgrass (Alopecurus myosuroides)
Procedure, shortened: as §1

[13] = test system: velvetleaf (Abutilon theophrasti)
Procedure, shortened: as §1

[14] = test system: wheat (winter wheat, Triticum aestivum)
Procedure, shortened: as §1

[15] = test system: nutsedge, yellow (yellow nutsedge, Cyperus esculentus)
Procedure, shortened: as §1

[16] = Postemergence, 8 g ai/ha, scale 0 to 100 (0 no effect, 100 complete control)
[17] = Postemergence, 16 g ai/ha, scale 0 to 100 (0 no effect, 100 complete control)
[18] = Postemergence, 31 g ai/ha, 0 to 100 scale (0 no effect, 100 complete control)
[19] = Preemergence, 16 g ai/ha, scale 0 to 100, 0 is no effect, 100 is complete control
[20] = Preemergence, 31 g ai/ha, scale 0 to 100, 0 is no effect, 100 is complete control
[21] = Preemergence, 62 g ai/ha, scale 0 to 100, 0 is no effect, 100 is complete control
[22] = postemergence, 62 g ai/ha, scale 0 to 100, 0 no effect, 100 complete control
[23] = Preemergence, 8 g ai/ha, scale 0 to 100, 0 is no effect, 100 is complete control

Cc1nn(C)c(=O)c(-c2c(C)sc3c(C)cc(Cl)cc23)c1O [Compound 35]
Plant response rating, Lambsquarters [1, 16]: 35
Plant response rating, Lambsquarters [1, 17]: 75
Lambsquarters plant response rating [1, 18]: 80
Plant response rating, Lambsquarters [1, 19]: 5
Plant response rating, Lambsquarters [1, 20]: 20
Plant response rating, Lambsquarters [1, 21]: 100
Lambsquarters plant response rating [1, 22]: 70
Plant response rating, Barnyardgrass [2, 16]: 10
Plant response rating, Barnyardgrass [2, 17]: 10
Barnyardgrass plant response rating [2, 18]: 20
Plant response rating, Barnyardgrass [2, 23]: 0
Plant response rating, Barnyardgrass [2, 19]: 5
Plant response rating, Barnyardgrass [2, 20]: 5
Plant response rating, Barnyardgrass [2, 21]: 25
Barnyardgrass plant response rating [2, 22]: 20
Plant response rating, Galium [3, 16]: 90
Plant response rating, Galium [3, 17]: 90
Galium plant response rating [3, 18]: 90
Plant response rating, Galium [3, 19]: 90
Plant response rating, Galium [3, 20]: 90
Plant response rating, Galium [3, 21]: 95
Galium plant response rating [3, 22]: 95
Plant response rating, Crabgrass, Large [4, 16]: 5
Plant response rating, Crabgrass, Large [4, 17]: 5
Crabgrass, Large plant response rating [4, 18]: 20
Plant response rating, Crabgrass, Large [4, 23]: 0
Plant response rating, Crabgrass, Large [4, 19]: 0
Plant response rating, Crabgrass, Large [4, 20]: 5
Plant response rating, Crabgrass, Large [4, 21]: 5
Crabgrass, Large plant response rating [4, 22]: 20
Plant response rating, Foxtail, Giant [5, 16]: 25
Plant response rating, Foxtail, Giant [5, 17]: 35
Foxtail, Giant plant response rating [5, 18]: 50
Plant response rating, Foxtail, Giant [5, 23]: 5
Plant response rating, Foxtail, Giant [5, 19]: 25
Plant response rating, Foxtail, Giant [5, 20]: 60
Plant response rating, Foxtail, Giant [5, 21]: 85
Foxtail, Giant plant response rating [5, 22]: 75
Plant response rating, Soybean [6, 16]: 0
Plant response rating, Soybean [6, 17]: 0
Soybean plant response rating [6, 18]: 0
Plant response rating, Soybean [6, 19]: 0
Plant response rating, Soybean [6, 20]: 0
Plant response rating, Soybean [6, 21]: 0
Soybean plant response rating [6, 22]: 5
Plant response rating, Oilseed Rape [7, 16]: 0
Plant response rating, Oilseed Rape [7, 17]: 0
Plant response rating, Oilseed Rape [7, 19]: 5
Plant response rating, Oilseed Rape [7, 20]: 90
Plant response rating, Oilseed Rape [7, 21]: 90
Oilseed Rape plant response rating [7, 22]: 10
Plant response rating, Ryegrass, Italian [8, 16]: 10
Plant response rating, Ryegrass, Italian [8, 17]: 30
Ryegrass, Italian plant response rating [8, 18]: 35
Plant response rating, Ryegrass, Italian [8, 19]: 50
Plant response rating, Ryegrass, Italian [8, 20]: 65
Plant response rating, Ryegrass, Italian [8, 21]: 70
Ryegrass, Italian plant response rating [8, 22]: 55
Plant response rating, Pigweed [9, 16]: 35
Plant response rating, Pigweed [9, 17]: 25
Pigweed plant response rating [9, 18]: 60
Plant response rating, Pigweed [9, 19]: 75
Plant response rating, Pigweed [9, 20]: 75
Plant response rating, Pigweed [9, 21]: 80
Pigweed plant response rating [9, 22]: 55
Plant response rating, Corn [10, 16]: 0
Plant response rating, Corn [10, 17]: 0
Corn plant response rating [10, 18]: 5
Plant response rating, Corn [10, 23]: 0
Plant response rating, Corn [10, 19]: 0
Plant response rating, Corn [10, 20]: 0
Plant response rating, Corn [10, 21]: 0
Corn plant response rating [10, 22]: 5
Plant response rating, Ragweed [11, 16]: 0
Plant response rating, Ragweed [11, 17]: 0
Ragweed plant response rating [11, 18]: 25
Plant response rating, Ragweed [11, 19]: 0
Plant response rating, Ragweed [11, 20]: 5
Plant response rating, Ragweed [11, 21]: 40
Ragweed plant response rating [11, 22]: 40
Plant response rating, Blackgrass [12, 16]: 0
Plant response rating, Blackgrass [12, 17]: 5
Blackgrass plant response rating [12, 18]: 15
Plant response rating, Blackgrass [12, 23]: 5
Plant response rating, Blackgrass [12, 19]: 40
Plant response rating, Blackgrass [12, 20]: 50
Plant response rating, Blackgrass [12, 21]: 55
Blackgrass plant response rating [12, 22]: 45
Plant response rating, Velvetleaf [13, 16]: 60
Plant response rating, Velvetleaf [13, 17]: 75
Velvetleaf plant response rating [13, 18]: 100
Plant response rating, Velvetleaf [13, 19]: 0
Plant response rating, Velvetleaf [13, 20]: 40
Plant response rating, Velvetleaf [13, 21]: 85
Velvetleaf plant response rating [13, 22]: 100
Plant response rating, Wheat [14, 16]: 0
Plant response rating, Wheat [14, 17]: 0
Wheat plant response rating [14, 18]: 0
Plant response rating, Wheat [14, 19]: 0
Plant response rating, Wheat [14, 20]: 0
Plant response rating, Wheat [14, 21]: 5
Wheat plant response rating [14, 22]: 5
Plant response rating, Nutsedge, Yellow [15, 16]: 45
Plant response rating, Nutsedge, Yellow [15, 17]: 60
Nutsedge, Yellow plant response rating [15, 18]: 75
Plant response rating, Nutsedge, Yellow [15, 19]: 20
Plant response rating, Nutsedge, Yellow [15, 20]: 20
Plant response rating, Nutsedge, Yellow [15, 21]: 40
Nutsedge, Yellow plant response rating [15, 22]: 85
